# Assay results from ChEMBL document CHEMBL1143089, “Structure-based design and subsequent optimization of 2-tolyl-(1,2,3-triazol-1-yl-4-carboxamide) inhibitors of p38 MAP kinase” (Bioorg Med Chem Lett, 2008).
# Active and inactive are the calls of the source. The calls are words filed in the database; no cut-off is given here.
# Experiments:
# THP-1 = assay: Inhibition of LPS-stimulated TNFalpha production in human THP1 cells; assay type: functional, cell-based
# Blood = assay: Inhibition of LPS-stimulated TNFalpha production in human whole blood; assay type: functional, tissue-based
# [1] = Binding affinity to mitogen-activated protein kinase p38 by thermal denaturation assay
# Homo sapiens = species on record: Homo sapiens; assay: Protein binding in human plasma; conditions: read-out: PPB (converted)
# [2] = Solubility at pH 7.4; assay type: physicochemical; conditions: buffer
# [3] = Binding affinity to mitogen-activated protein kinase p38
# [4] = Inhibition of JNK2a
# [5] = Apparent permeability across human Caco-2 cells; assay type: ADME, cell-based
# [6] = biological target: Fibroblast growth factor receptor 3 (Homo sapiens) (UniProt P22607); assay: Activity at FGFR3 at 10 uM
# [7] = Activity at AMPK at 3 uM
# [8] = biological target: Tyrosine-protein kinase JAK3 (Homo sapiens) (UniProt P52333); assay: Activity at JAK3 at 10 uM
# [9] = biological target: Rho-associated protein kinase 2 (Homo sapiens) (UniProt O75116); assay: Activity at ROCK2 at 3 uM
# [10] = biological target: Ephrin type-A receptor 2 (Homo sapiens) (UniProt P29317); assay: Activity at Eck at 10 uM
# [11] = biological target: Mitogen-activated protein kinase 8 (Homo sapiens) (UniProt P45983); assay: Activity at JNK1 at 3 uM
# [12] = biological target: Mitogen-activated protein kinase 1 (Homo sapiens) (UniProt P28482); assay: Activity at ERK2 at 3 uM
# [13] = Activity at MKK1 at 3 uM
# [14] = biological target: Serine/threonine-protein kinase Sgk1 (Homo sapiens) (UniProt O00141); assay: Activity at SGK at 3 uM
# [15] = biological target: Casein kinase I isoform alpha (Homo sapiens) (UniProt P48729); assay: Activity at CK1 at 3 uM
# [16] = biological target: Epidermal growth factor receptor (Homo sapiens) (UniProt P00533); assay: Activity at EGFR at 10 uM
# [17] = biological target: Ribosomal protein S6 kinase alpha-5 (Homo sapiens) (UniProt O75582); assay: Activity at MSK1 at 3 uM
# [18] = Activity at PKBdeltaPH at 3 uM
# [19] = biological target: Tyrosine-protein kinase Lyn (Homo sapiens) (UniProt P07948); assay: Activity at Lyn at 10 uM
# [20] = biological target: Mitogen-activated protein kinase 13 (Homo sapiens) (UniProt O15264); assay: Activity at MAPK p38delta at 3 uM
# [21] = biological target: Insulin receptor (Homo sapiens) (UniProt P06213); assay: Activity at IR at 10 uM
# [22] = Activity at PKA at 3 uM
# [23] = biological target: 3-phosphoinositide-dependent protein kinase 1 (Homo sapiens) (UniProt O15530); assay: Activity at PDK1 at 3 uM
# [24] = biological target: Hepatocyte growth factor receptor (Homo sapiens) (UniProt P08581); assay: Activity at HGFR at 10 uM
# [25] = biological target: Tyrosine-protein kinase TXK (Homo sapiens) (UniProt P42681); assay: Activity at TXK at 10 uM
# [26] = biological target: Glycogen synthase kinase-3 beta (Homo sapiens) (UniProt P49841); assay: Activity at GSK3-beta at 3 uM
# [27] = biological target: Ephrin type-A receptor 3 (Homo sapiens) (UniProt P29320); assay: Activity at Hek at 10 uM; conditions: HEK293
# [28] = biological target: Cyclin-dependent kinase 2/cyclin A (Homo sapiens) (UniProt P24941+P20248+P78396); assay: Activity at CDK2/cyclin A at 3 uM; assay type: protein-complex assay
# [29] = biological target: Tyrosine-protein kinase SYK (Homo sapiens) (UniProt P43405); assay: Activity at Syk at 10 uM
# [30] = biological target: Tyrosine-protein kinase ITK/TSK (Homo sapiens) (UniProt Q08881); assay: Activity at Itk at 10 uM
# [31] = Activity at PP2A at 3 uM
# [32] = biological target: Protein kinase C alpha type (Homo sapiens) (UniProt P17252); assay: Activity at PKCalpha at 3 uM
# [33] = biological target: MAP kinase-activated protein kinase 2 (Homo sapiens) (UniProt P49137); assay: Activity at MAPKAP-K2 at 3 uM
# [34] = biological target: Mitogen-activated protein kinase 14 (Homo sapiens) (UniProt Q16539); assay: Activity at MAPK p38-alpha at 3 uM
# [35] = biological target: Casein kinase II subunit alpha (Homo sapiens) (UniProt P68400); assay: Activity at CK2 at 3 uM
# [36] = biological target: Serine/threonine-protein kinase Nek6 (Homo sapiens) (UniProt Q9HC98); assay: Activity at NEK6 at 3 uM
# [37] = biological target: Vascular endothelial growth factor receptor 1 (Homo sapiens) (UniProt P17948); assay: Activity at VEGFR1 at 10 uM
# [38] = biological target: Dual specificity tyrosine-phosphorylation-regulated kinase 1A (Homo sapiens) (UniProt Q13627); assay: Activity at DYRK1A at 3 uM
# [39] = biological target: MAP kinase-activated protein kinase 5 (Homo sapiens) (UniProt Q8IW41); assay: Activity at PRAK at 3 uM
# [40] = biological target: Insulin-like growth factor 1 receptor (Homo sapiens) (UniProt P08069); assay: Activity at IGF1R at 10 uM
# [41] = biological target: Tyrosine-protein kinase BTK (Homo sapiens) (UniProt Q06187); assay: Activity at Btk at 10 uM
# [42] = biological target: Serine/threonine-protein kinase Chk1 (Homo sapiens) (UniProt O14757); assay: Activity at CHK1 at 3 uM
# [43] = biological target: Ribosomal protein S6 kinase beta-1 (Homo sapiens) (UniProt P23443); assay: Activity at S6K1 at 3 uM
# [44] = biological target: Ribosomal protein S6 kinase alpha-1 (Homo sapiens) (UniProt Q15418); assay: Activity at MAPKAP-K1a at 3 uM
# Sequence of MAP kinase-activated protein kinase 2 (Homo sapiens) (P49137 whole entry, looked up): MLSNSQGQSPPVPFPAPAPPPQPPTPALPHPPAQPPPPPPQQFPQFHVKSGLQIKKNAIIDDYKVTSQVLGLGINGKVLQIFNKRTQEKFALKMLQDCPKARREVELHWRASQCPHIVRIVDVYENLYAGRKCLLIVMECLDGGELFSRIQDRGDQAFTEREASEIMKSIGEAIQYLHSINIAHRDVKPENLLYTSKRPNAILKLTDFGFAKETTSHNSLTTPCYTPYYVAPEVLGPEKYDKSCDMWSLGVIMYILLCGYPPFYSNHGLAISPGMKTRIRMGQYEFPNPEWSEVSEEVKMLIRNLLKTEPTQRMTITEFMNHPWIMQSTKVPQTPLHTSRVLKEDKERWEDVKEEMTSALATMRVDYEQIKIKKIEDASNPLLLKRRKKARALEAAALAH
# Sequence of Insulin-like growth factor 1 receptor (Homo sapiens) (P08069 31-736 limits assumed): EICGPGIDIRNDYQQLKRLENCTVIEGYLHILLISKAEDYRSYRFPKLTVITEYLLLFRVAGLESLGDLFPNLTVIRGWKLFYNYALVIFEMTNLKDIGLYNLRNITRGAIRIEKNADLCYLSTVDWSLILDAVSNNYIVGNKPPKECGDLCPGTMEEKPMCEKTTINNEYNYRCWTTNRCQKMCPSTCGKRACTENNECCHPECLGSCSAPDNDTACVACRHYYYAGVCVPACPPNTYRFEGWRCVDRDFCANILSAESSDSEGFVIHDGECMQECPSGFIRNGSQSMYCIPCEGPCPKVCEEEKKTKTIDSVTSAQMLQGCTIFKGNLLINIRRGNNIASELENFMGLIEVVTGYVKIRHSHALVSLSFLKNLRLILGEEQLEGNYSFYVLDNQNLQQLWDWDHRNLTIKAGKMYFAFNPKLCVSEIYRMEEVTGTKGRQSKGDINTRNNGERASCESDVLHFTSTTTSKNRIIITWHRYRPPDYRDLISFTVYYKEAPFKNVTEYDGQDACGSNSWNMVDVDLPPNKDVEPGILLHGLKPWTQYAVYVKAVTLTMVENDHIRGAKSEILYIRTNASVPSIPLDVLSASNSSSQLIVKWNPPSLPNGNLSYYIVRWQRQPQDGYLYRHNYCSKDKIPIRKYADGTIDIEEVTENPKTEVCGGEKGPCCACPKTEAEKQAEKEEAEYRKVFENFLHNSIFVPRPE
# Sequence of Insulin-like growth factor 1 receptor (Homo sapiens) (P08069 741-1367 limits assumed): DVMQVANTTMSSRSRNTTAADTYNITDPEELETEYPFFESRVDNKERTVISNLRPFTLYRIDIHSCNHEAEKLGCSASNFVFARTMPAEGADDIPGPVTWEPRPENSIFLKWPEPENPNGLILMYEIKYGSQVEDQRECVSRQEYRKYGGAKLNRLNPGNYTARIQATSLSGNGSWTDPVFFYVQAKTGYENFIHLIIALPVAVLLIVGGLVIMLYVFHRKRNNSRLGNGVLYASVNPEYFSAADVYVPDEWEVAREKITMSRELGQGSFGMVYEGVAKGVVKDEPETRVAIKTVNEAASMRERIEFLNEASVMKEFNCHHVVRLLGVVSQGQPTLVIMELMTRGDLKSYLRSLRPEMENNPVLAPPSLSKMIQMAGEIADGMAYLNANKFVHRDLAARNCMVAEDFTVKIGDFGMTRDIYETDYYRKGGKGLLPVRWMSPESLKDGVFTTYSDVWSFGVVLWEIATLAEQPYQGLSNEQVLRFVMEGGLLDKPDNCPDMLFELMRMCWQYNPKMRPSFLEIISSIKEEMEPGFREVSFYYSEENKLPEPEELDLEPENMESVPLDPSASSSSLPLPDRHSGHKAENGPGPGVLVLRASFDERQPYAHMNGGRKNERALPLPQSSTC
# Sequence of Mitogen-activated protein kinase 14 (Homo sapiens) (Q16539 whole entry): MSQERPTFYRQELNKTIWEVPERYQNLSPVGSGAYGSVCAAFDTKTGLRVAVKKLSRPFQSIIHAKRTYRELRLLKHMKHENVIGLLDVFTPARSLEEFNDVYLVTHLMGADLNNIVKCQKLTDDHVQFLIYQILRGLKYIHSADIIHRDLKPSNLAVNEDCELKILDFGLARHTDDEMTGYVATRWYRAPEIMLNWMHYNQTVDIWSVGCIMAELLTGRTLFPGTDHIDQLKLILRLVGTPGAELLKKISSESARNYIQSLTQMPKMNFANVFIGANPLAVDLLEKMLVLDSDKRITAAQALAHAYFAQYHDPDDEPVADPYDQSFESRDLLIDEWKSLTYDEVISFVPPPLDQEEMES
# Sequence of Casein kinase I isoform alpha (Homo sapiens) (P48729 2-337 limits assumed): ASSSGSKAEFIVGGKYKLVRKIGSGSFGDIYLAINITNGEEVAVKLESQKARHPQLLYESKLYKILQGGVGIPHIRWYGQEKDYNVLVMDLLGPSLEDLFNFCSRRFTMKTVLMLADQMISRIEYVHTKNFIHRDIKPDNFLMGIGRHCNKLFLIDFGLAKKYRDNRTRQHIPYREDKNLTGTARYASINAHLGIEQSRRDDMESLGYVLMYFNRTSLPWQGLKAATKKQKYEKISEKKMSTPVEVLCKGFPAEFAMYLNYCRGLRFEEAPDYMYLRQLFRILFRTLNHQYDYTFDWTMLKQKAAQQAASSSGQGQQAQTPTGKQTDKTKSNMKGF
# Sequence of Ribosomal protein S6 kinase alpha-5 (Homo sapiens) (O75582 whole entry, looked up): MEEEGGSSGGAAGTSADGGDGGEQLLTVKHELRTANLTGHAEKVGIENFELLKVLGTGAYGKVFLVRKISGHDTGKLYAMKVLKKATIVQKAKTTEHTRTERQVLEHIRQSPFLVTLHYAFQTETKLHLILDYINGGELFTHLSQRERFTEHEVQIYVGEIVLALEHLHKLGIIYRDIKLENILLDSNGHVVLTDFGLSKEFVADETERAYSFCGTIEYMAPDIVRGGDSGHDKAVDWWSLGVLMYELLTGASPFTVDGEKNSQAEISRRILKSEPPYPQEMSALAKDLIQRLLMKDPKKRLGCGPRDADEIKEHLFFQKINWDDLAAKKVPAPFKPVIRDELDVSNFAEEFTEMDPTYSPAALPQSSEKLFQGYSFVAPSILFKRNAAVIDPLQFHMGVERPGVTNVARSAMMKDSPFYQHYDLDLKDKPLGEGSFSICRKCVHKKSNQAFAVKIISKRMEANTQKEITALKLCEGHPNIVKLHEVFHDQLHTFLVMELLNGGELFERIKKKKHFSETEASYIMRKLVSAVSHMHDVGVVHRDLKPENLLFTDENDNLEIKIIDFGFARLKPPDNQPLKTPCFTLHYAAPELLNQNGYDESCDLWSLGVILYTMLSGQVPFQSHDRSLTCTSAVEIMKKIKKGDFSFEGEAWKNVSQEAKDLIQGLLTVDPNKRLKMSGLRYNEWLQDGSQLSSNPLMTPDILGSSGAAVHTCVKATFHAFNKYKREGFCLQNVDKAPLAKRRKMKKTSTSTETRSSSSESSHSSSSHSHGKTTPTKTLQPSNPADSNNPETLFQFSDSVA
# Sequence of Mitogen-activated protein kinase 1 (Homo sapiens) (P28482 whole entry): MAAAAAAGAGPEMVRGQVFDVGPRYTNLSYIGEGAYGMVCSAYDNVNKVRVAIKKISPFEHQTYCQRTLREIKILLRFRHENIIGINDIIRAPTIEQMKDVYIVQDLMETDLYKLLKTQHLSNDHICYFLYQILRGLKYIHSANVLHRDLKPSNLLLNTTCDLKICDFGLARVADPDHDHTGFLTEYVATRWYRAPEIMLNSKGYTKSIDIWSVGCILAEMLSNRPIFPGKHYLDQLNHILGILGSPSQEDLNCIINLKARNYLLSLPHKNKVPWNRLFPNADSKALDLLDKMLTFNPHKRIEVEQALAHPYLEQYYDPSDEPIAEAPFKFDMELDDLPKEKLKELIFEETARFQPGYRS
# Sequence of Vascular endothelial growth factor receptor 1 (Homo sapiens) (P17948 whole entry): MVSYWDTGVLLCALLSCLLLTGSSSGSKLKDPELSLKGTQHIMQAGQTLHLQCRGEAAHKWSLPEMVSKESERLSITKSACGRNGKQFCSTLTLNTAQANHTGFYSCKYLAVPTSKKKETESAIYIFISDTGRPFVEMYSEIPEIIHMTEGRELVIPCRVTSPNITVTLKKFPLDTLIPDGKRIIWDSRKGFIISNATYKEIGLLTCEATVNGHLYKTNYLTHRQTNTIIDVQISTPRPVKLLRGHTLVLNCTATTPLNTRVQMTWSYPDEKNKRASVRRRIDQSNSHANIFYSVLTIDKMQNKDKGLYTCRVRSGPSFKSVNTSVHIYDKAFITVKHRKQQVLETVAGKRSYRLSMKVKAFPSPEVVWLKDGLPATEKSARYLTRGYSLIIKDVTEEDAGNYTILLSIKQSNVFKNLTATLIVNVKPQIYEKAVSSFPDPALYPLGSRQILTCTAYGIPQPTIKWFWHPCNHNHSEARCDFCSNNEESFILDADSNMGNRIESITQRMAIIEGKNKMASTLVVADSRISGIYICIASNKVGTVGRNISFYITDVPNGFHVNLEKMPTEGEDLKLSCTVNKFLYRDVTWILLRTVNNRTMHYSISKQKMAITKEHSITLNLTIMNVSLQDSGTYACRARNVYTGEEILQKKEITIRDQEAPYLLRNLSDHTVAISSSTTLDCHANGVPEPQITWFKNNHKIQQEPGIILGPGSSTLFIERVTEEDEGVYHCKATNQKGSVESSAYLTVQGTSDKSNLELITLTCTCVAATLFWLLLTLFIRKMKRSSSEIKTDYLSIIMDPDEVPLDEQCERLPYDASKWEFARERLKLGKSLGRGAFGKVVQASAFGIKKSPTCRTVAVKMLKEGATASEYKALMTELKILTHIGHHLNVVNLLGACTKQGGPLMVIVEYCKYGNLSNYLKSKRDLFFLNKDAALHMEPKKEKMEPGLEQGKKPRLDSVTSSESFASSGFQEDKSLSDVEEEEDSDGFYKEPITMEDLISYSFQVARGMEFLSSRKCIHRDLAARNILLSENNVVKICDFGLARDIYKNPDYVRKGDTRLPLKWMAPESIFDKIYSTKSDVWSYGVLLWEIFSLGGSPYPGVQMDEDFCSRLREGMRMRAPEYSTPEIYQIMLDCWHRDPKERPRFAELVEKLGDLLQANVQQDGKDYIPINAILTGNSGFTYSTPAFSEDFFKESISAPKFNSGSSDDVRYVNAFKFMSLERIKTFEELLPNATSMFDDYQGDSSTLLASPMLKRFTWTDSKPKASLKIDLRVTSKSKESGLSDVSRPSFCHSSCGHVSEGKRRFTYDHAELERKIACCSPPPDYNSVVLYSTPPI
structure (smiles),measurement,setting,value
COc1c(NC(=O)c2ccc(C)c(N3C=C(C(=O)N[C@@H](C)C(C)(C)C)NN3)c2)cc(C(C)(C)C)cc1NS(C)(=O)=O,IC50,THP-1,35 nM
same,IC50,Blood,2600 nM
same,Tm,[1],60 °C
COc1c(NC(=O)c2ccc(C)c(N3C=C(C(=O)N[C@H](C)C4CCCCC4)NN3)c2)cc(C(C)(C)C)cc1NS(C)(=O)=O,IC50,THP-1,16 nM
same,IC50,Blood,2800 nM
same,Tm,[1],60.8 °C
COc1c(NC(=O)c2ccc(C)c(N3C=C(C(=O)N(C)Cc4ccccc4)NN3)c2)cc(C(C)(C)C)cc1NS(C)(=O)=O,IC50,THP-1,29 nM
same,IC50,Blood,> 15000 nM
same,Tm,[1],57.8 °C
COc1c(NC(=O)c2ccc(C)c(N3C=C(C(=O)NCC4CCCCC4)NN3)c2)cc(C(C)(C)C)cc1NS(C)(=O)=O,IC50,THP-1,14 nM
same,IC50,Blood,260 nM
same,Tm,[1],56.2 °C
COc1c(NC(=O)c2ccc(C)c(N3C=C(C(=O)NC4CC4)NN3)c2)cc(C(C)(C)C)cc1NS(C)(=O)=O,IC50,THP-1,110 nM
same,IC50,Blood,2800 nM
same,Tm,[1],56.6 °C
COc1c(NC(=O)c2ccc(C)c(N3C=C(C(=O)NCC(C)(C)C)NN3)c2)cc(C(C)(C)C)cc1NS(C)(=O)=O,IC50,THP-1,14 nM
same,IC50,Blood,260 nM
same,fraction unbound,Homo sapiens,0.08
same,solubility,[2],0.1 µg/mL
same,Tm,[1],60.5 °C
CCOC(=O)C1=CN(c2cc(C(=O)Nc3cc(C(C)(C)C)cc(NS(C)(=O)=O)c3OC)ccc2C)NN1,IC50,THP-1,> 5000 nM
same,IC50,Blood,9000 nM
same,Tm,[1],56.2 °C
same,Kd,[3],8 nM
CNC(=O)C1=CN(c2cc(C(=O)Nc3cc(C(C)(C)C)cc(NS(C)(=O)=O)c3OC)ccc2C)NN1,IC50,THP-1,110 nM
same,IC50,Blood,8400 nM
same,Tm,[1],57.3 °C
Cc1ccc(-n2nc(C(C)(C)C)cc2NC(=O)Nc2ccc(OCCN3CCOCC3)c3ccccc23)cc1 [DORAMAPIMOD],IC50,[4],6 nM
same,solubility,[2],1 µg/mL
same,Papp,[5],10 ×10⁻⁶ cm/s
same,Tm,[1],63.5 °C
COc1c(NC(=O)c2ccc(C)c(N3C=C(C(=O)N[C@H](C)c4ccccc4)NN3)c2)cc(C(C)(C)C)cc1NS(C)(=O)=O,IC50,THP-1,13 nM
same,IC50,Blood,470 nM
same,Tm,[1],64.6 °C
COc1c(NC(=O)c2ccc(C)c(N3C=C(C(=O)NCc4ccccc4)NN3)c2)cc(C(C)(C)C)cc1NS(C)(=O)=O,IC50,THP-1,40 nM
same,IC50,Blood,930 nM
same,Tm,[1],59.7 °C
COc1c(NC(=O)c2ccc(C)c(N3C=C(C(=O)NCC4CCN(C)CC4)NN3)c2)cc(C(C)(C)C)cc1NS(C)(=O)=O,IC50,THP-1,200 nM
same,IC50,Blood,4500 nM
same,Tm,[1],57.5 °C
COc1c(NC(=O)c2ccc(C)c(N3C=C(C(=O)NC(C)(C)C)NN3)c2)cc(C(C)(C)C)cc1NS(C)(=O)=O,IC50,THP-1,84 nM
same,IC50,Blood,> 15000 nM
same,Tm,[1],56.8 °C
COc1c(NC(=O)c2ccc(C)c(N3C=C(C(=O)NCc4cccnc4)NN3)c2)cc(C(C)(C)C)cc1NS(C)(=O)=O,IC50,THP-1,38 nM
same,IC50,Blood,270 nM
same,Tm,[1],57.9 °C
COc1c(NC(=O)c2ccc(C)c(N3C=C(C(=O)N[C@H](C)C(C)(C)C)NN3)c2)cc(C(C)(C)C)cc1NS(C)(=O)=O,IC50,THP-1,14 nM
same,IC50,Blood,1000 nM
same,Tm,[1],61.6 °C
COc1c(NC(=O)c2ccc(C)c(N3C=C(C(=O)NCC(C)(C)CN(C)C)NN3)c2)cc(C(C)(C)C)cc1NS(C)(=O)=O,Activity,[6],inactive
same,Activity,[7],inactive
same,IC50,THP-1,22 nM
same,Activity,[8],inactive
same,Activity,[9],inactive
same,Activity,[10],inactive
same,Activity,[11],inactive
same,Activity,[12],inactive
same,Activity,[13],inactive
same,Activity,[14],inactive
same,Activity,[15],inactive
same,IC50,[4],1100 nM
same,Activity,[16],inactive
same,IC50,Blood,83 nM
same,Activity,[17],inactive
same,Activity,[18],inactive
same,fraction unbound,Homo sapiens,0.34
same,solubility,[2],13.9 µg/mL
same,Activity,[19],inactive
same,Activity,[20],inactive
same,Activity,[21],inactive
same,Activity,[22],inactive
same,Activity,[23],inactive
same,Papp,[5],13 ×10⁻⁶ cm/s
same,Activity,[24],inactive
same,Activity,[25],inactive
same,Activity,[26],inactive
same,Activity,[27],inactive
same,Activity,[28],inactive
same,Activity,[29],inactive
same,Activity,[30],inactive
same,Tm,[1],57.3 °C
same,Activity,[31],inactive
same,Activity,[32],inactive
same,Activity,[33],inactive
same,Activity,[34],inactive
same,Activity,[35],inactive
same,Activity,[36],inactive
same,Activity,[37],inactive
same,Activity,[38],inactive
same,Activity,[39],inactive
same,Activity,[40],inactive
same,Activity,[41],inactive
same,Activity,[42],inactive
same,Activity,[43],inactive
same,Activity,[44],inactive
COc1c(NC(=O)c2ccc(C)c(N3C=C(C(=O)NCC(C)(C)O)NN3)c2)cc(C(C)(C)C)cc1NS(C)(=O)=O,IC50,THP-1,18 nM
same,IC50,Blood,210 nM
same,fraction unbound,Homo sapiens,0.34
same,solubility,[2],2 µg/mL
same,Papp,[5],7.4 ×10⁻⁶ cm/s
same,Tm,[1],59.9 °C
COc1c(NC(=O)c2ccc(C)c(N3C=C(C(=O)NCC(C)(C)N(C)C)NN3)c2)cc(C(C)(C)C)cc1NS(C)(=O)=O,IC50,THP-1,140 nM
same,IC50,Blood,790 nM
same,Tm,[1],56.1 °C
COc1c(NC(=O)c2ccc(C)c(N3C=C(C(=O)N[C@@H](C)c4ccccc4)NN3)c2)cc(C(C)(C)C)cc1NS(C)(=O)=O,IC50,THP-1,27 nM
same,IC50,Blood,2600 nM
same,Tm,[1],60.1 °C
COc1c(NC(=O)c2ccc(C)c(N3C=C(C(=O)NCC4CCCN(C)C4)NN3)c2)cc(C(C)(C)C)cc1NS(C)(=O)=O (centres undefined),IC50,THP-1,28 nM
same,IC50,Blood,300 nM
same,Tm,[1],57.4 °C
COc1c(NC(=O)c2ccc(C)c(N3C=C(C(=O)NCc4ccncc4)NN3)c2)cc(C(C)(C)C)cc1NS(C)(=O)=O,IC50,THP-1,74 nM
same,IC50,Blood,720 nM
same,Tm,[1],58.8 °C
COc1c(NC(=O)c2ccc(C)c(N3C=C(C(=O)N[C@H](CN(C)C)c4ccccc4)NN3)c2)cc(C(C)(C)C)cc1NS(C)(=O)=O,IC50,THP-1,35 nM
same,IC50,Blood,500 nM
same,Tm,[1],65.1 °C
COc1c(NC(=O)c2ccc(C)c(N3C=C(C(=O)N[C@@H](C)C4CCCCC4)NN3)c2)cc(C(C)(C)C)cc1NS(C)(=O)=O,IC50,THP-1,66 nM
same,IC50,Blood,5600 nM
same,Tm,[1],56.9 °C
